System: spontaneously hypertensive (SH) rats
Assay: Mean arterial pressure of conscious SH rats, direct measurement by cannulation of the caudal artery
Type: in vivo
Conditions: for Mean arterial pressure at hours after treatment 0: 0 h; for Mean arterial pressure at hours after treatment 1/2: 1/2 h; for Mean arterial pressure at hours after treatment 1: 1 h; for Mean arterial pressure at hours after treatment 2: 2 h; for Mean arterial pressure at hours after treatment 4: 4 h; for Mean arterial pressure at hours after treatment 8: 8 h; for Mean arterial pressure at hours after treatment 12: 12 h; for Mean arterial pressure at hours after treatment 18: 18 h; for Mean arterial pressure at hours after treatment 24: 24 h
Procedure: The test procedure used is substantially as follows: • The test animals used were conscious, male, SH rats weighing about 290 to about 340 grams. The arterial blood pressure was measured by a direct technique involving cannulation of the caudal artery. Initial blood pressure reading was recorded. The decarboxylase inhibitor was then administered intraperitoneally (i.p.) and about 5 minutes later the L-a-methyl-p-tyrosine was given [(i.p. or orally (p.o.)]. The blood pressure was then continuously recorded at 1/2 hour intervals for 24 hours. The effect on blood pressure of the decarboxylase inhibitor and the L-a-methyl-p-tyrosine alone was also obtained by this test method. The results of representative tests are in the following table: […]

[1] = Test No. 2, Carbidopa 25 mg/kg i.p.
[2] = Test No. 13, Carbidopa 25 mg/kg i.p.
[3] = Test No. 3, α-methyl-p-tyrosine 5 mg/kg i.p.
[4] = Test No. 4, α-methyl-p-tyrosine 20 mg/kg i.p.
[5] = Test No. 5, α-methyl-p-tyrosine 40 mg/kg i.p.
[6] = Test No. 6, α-methyl-p-tyrosine 80 mg/kg i.p.
[7] = Test No. 14, α-Methyl-p-tyrosine 80 mg/kg p.o.

C[C@@](Cc1ccc(O)c(O)c1)(NN)C(=O)O [Carbidopa]
Mean arterial pressure at hours after treatment 0 [1]: 167 mm Hg
Mean arterial pressure at hours after treatment 1/2 [1]: 166 mm Hg
Mean arterial pressure at hours after treatment 1 [1]: 164 mm Hg
Mean arterial pressure at hours after treatment 2 [1]: 166 mm Hg
Mean arterial pressure at hours after treatment 4 [1]: 158 mm Hg
Mean arterial pressure at hours after treatment 8 [1]: 167 mm Hg
Mean arterial pressure at hours after treatment 12 [1]: 172 mm Hg
Mean arterial pressure at hours after treatment 18 [1]: 172 mm Hg
Mean arterial pressure at hours after treatment 24 [1]: 162 mm Hg
Mean arterial pressure at hours after treatment 0 [2]: 184 mm Hg
Mean arterial pressure at hours after treatment 1/2 [2]: 184 mm Hg
Mean arterial pressure at hours after treatment 1 [2]: 180 mm Hg
Mean arterial pressure at hours after treatment 2 [2]: 178 mm Hg
Mean arterial pressure at hours after treatment 4 [2]: 177 mm Hg
Mean arterial pressure at hours after treatment 8 [2]: 184 mm Hg
Mean arterial pressure at hours after treatment 12 [2]: 183 mm Hg
Mean arterial pressure at hours after treatment 18 [2]: 185 mm Hg
Mean arterial pressure at hours after treatment 24 [2]: 182 mm Hg

C[C@](N)(Cc1ccc(O)cc1)C(=O)O [α-methyl-p-tyrosine, L-α-methyl-p-tyrosine]
Mean arterial pressure at hours after treatment 0 [3]: 165 mm Hg
Mean arterial pressure at hours after treatment 1/2 [3]: 155 mm Hg
Mean arterial pressure at hours after treatment 1 [3]: 162 mm Hg
Mean arterial pressure at hours after treatment 2 [3]: 160 mm Hg
Mean arterial pressure at hours after treatment 4 [3]: 161 mm Hg
Mean arterial pressure at hours after treatment 8 [3]: 167 mm Hg
Mean arterial pressure at hours after treatment 12 [3]: 164 mm Hg
Mean arterial pressure at hours after treatment 18 [3]: 168 mm Hg
Mean arterial pressure at hours after treatment 24 [3]: 164 mm Hg
Mean arterial pressure at hours after treatment 0 [4]: 165 mm Hg
Mean arterial pressure at hours after treatment 1/2 [4]: 152 mm Hg
Mean arterial pressure at hours after treatment 1 [4]: 159 mm Hg
Mean arterial pressure at hours after treatment 2 [4]: 157 mm Hg
Mean arterial pressure at hours after treatment 4 [4]: 146 mm Hg
Mean arterial pressure at hours after treatment 8 [4]: 156 mm Hg
Mean arterial pressure at hours after treatment 12 [4]: 155 mm Hg
Mean arterial pressure at hours after treatment 18 [4]: 161 mm Hg
Mean arterial pressure at hours after treatment 24 [4]: 166 mm Hg
Mean arterial pressure at hours after treatment 0 [5]: 166 mm Hg
Mean arterial pressure at hours after treatment 1/2 [5]: 148 mm Hg
Mean arterial pressure at hours after treatment 1 [5]: 152 mm Hg
Mean arterial pressure at hours after treatment 2 [5]: 145 mm Hg
Mean arterial pressure at hours after treatment 4 [5]: 135 mm Hg
Mean arterial pressure at hours after treatment 8 [5]: 140 mm Hg
Mean arterial pressure at hours after treatment 12 [5]: 134 mm Hg
Mean arterial pressure at hours after treatment 18 [5]: 130 mm Hg
Mean arterial pressure at hours after treatment 24 [5]: 135 mm Hg
Mean arterial pressure at hours after treatment 0 [6]: 167 mm Hg
Mean arterial pressure at hours after treatment 1/2 [6]: 166 mm Hg
Mean arterial pressure at hours after treatment 1 [6]: 158 mm Hg
Mean arterial pressure at hours after treatment 2 [6]: 146 mm Hg
Mean arterial pressure at hours after treatment 4 [6]: 138 mm Hg
Mean arterial pressure at hours after treatment 8 [6]: 131 mm Hg
Mean arterial pressure at hours after treatment 12 [6]: 130 mm Hg
Mean arterial pressure at hours after treatment 18 [6]: 136 mm Hg
Mean arterial pressure at hours after treatment 24 [6]: 130 mm Hg
Mean arterial pressure at hours after treatment 0 [7]: 169 mm Hg
Mean arterial pressure at hours after treatment 1/2 [7]: 165 mm Hg
Mean arterial pressure at hours after treatment 1 [7]: 166 mm Hg
Mean arterial pressure at hours after treatment 2 [7]: 161 mm Hg
Mean arterial pressure at hours after treatment 4 [7]: 143 mm Hg
Mean arterial pressure at hours after treatment 8 [7]: 147 mm Hg
Mean arterial pressure at hours after treatment 12 [7]: 161 mm Hg
Mean arterial pressure at hours after treatment 18 [7]: 165 mm Hg
Mean arterial pressure at hours after treatment 24 [7]: 173 mm Hg

Source: patent EP0003353A1, “A pharmaceutical composition for oral administration for treating hypertension” (Merck & Co., Inc., priority 1978, dated 1979)
